US20240092739A1, “COMPOUNDS AND METHODS OF USE” (Ferro Therapeutics, Inc, priority 2020, published 2024)
Like-named read-outs stand apart in the source and are kept apart here.

Experiments:
[1] = test system: 786-O (renal cell carcinoma) cells; test: Cell proliferation (Alamar Blue) assay, 786-O cells; type: cell-based; details: Homo sapiens, 786-0, 786-O cells, Alamar Blue
Experimental: (§1) Cell viability assay was performed to assess the potency of the compounds in human cancer cell lines 786-0 (renal cell carcinoma) and SJSA-1 (osteosarcoma). Additional cell lines, such as pancreatic cancer cell lines (Panc 02.13, BxPC-3, Panc 12, Panc 02.03, Panc 6.03, PSN-1, HPAC, and Capan-1), prostate cancer cell lines (PC-3, DU145, […], NCI-H660, 1PH1 LNCaP, BM-1604, and MDA PCa 2b), etc., can be tested in a similar method.
(§2) Cells (SJSA-1, 786-0 and A431) were seeded (5000 cells/100 μL/well) in 96-well tissue culture plate and incubated at 37° C./500 CO2 for 16-24 hours. The cells were then treated with compounds (25 μL of 5×). The compound concentrations were 10-0.0005 μM prepared in 3-fold serial dilutions with final DMSO concentration of 1%. The plates were then incubated for 24 h at 37° C./[…] in a moist environment. Then Alamar Blue™ reagent (final concentration 1×-12.5 μL) was added to each well and incubated for 1.5 hours at 37° C./500 CO2. The plates were read on fluorescence reader at 540 nm excitation and 590 nm emission wavelengths. The IC50 values were subsequently determined using a sigmoidal dose-response curve (variable slope) in GraphPad Prism® 5 software. Tables A-3 and B-11 show cell proliferation data for exemplary compounds as described herein.

[2] = test system: 786-O cells + Ferrastatin-1; test: GPX4 inhibition assay: cell proliferation (Alamar Blue) in 786-O cells with ferrostatin rescue; type: cell-based, human
Experimental: as §2
Studies have shown that lipophilic antioxidants, such as ferrostatin, can rescue cells from GPX4 inhibition-induced ferroptosis. For instance, mesenchymal state GPX4-knockout cells can survive in the presence of ferrostatin, however, when the supply of ferrostatin is terminated, these cells undergo ferroptosis (see, e.g., Viswanathan et al., Nature 547:453-7, 2017). […] Accordingly, the ability of a molecule to induce ferroptotic cancer cell death, and that such ability is admonished by the addition of ferrostatin, is clear indication that the molecule is an GPX4 inhibitor. Cell proliferation data for exemplary compounds with and without ferrostatin can be seen in Table A-3.

A431 cells = test: Cell proliferation (Alamar Blue) assay, A431 cells; type: cell-based; details: Homo sapiens, A-431, A431 cells, Alamar Blue
Experimental: as §1, §2

[3] = 24 h compound incubation, read-out: Cell proliferation IC50 (μM) 786-O
[4] = 786-O cells with Ferrastatin-1 (rescue), read-out: Cell proliferation IC50 (μM) 786-O + Ferrastatin-1
[5] = 24 h compound incubation, read-out: Cell proliferation IC50 (μM) A431
[6] = 24 h compound treatment, read-out: IC50 (μM) 786-O
[7] = 786-O cells in presence of Ferrastatin-1 (rescue), read-out: IC50 (μM) 786-O + Ferrastatin-1
[8] = 24 h compound treatment, read-out: IC50 (μM) A431

| Compound | IC50 [1, 6] | IC50 [2, 7] | IC50 (A431 cells; [8]) | IC50 [1, 3] | IC50 [2, 4] | IC50 (A431 cells; [5]) |
| --- | --- | --- | --- | --- | --- | --- |
| CCC[C@H]1Cc2cc(OC)ccc2[C@@H](c2ccc(NC34CC5CC(CC(C5)C3)C4)cc2)N1C(=O)C#C[Si](C)(C)C [Compound A-4] |  |  |  | 0.067 µM | > 1 µM | > 1 µM |
| COC[C@H]1Cc2cc(OC)ccc2[C@@H](c2ccc(NC34CC5CC(CC(C5)C3)C4)cc2)N1C(=O)C#C[Si](C)(C)C [Compound A-5] |  |  |  | 0.039 µM | > 1 µM | > 1 µM |
| CCCC[C@H]1Cc2cc(OC)ccc2[C@H](c2ccc(NC34CC5CC(CC(C5)C3)C4)cc2)N1C(=O)C#C[Si](C)(C)C [Compound A-6, 1-((1S,3S)-1-(4-(((1s,3R)-adamantan-1-yl)amino)phenyl)-3-butyl-6-methoxy-3,4-dihydroisoquinolin-2(1H)-yl)-3-(trimethylsilyl)prop-2-yn-1-one] |  |  |  | 0.021 µM | > 1 µM | > 1 µM |
| CCCC[C@H]1Cc2cc(OC)ccc2[C@H](C23CC(F)(C2)C3)N1C(=O)C#C[Si](C)(C)C [Compound A-9, 1-((1S,3S)-3-butyl-1-(3-fluorobicyclo[1.1.1]pentan-1-yl)-6-methoxy-3,4-dihydroisoquinolin-2(1H)-yl)-3-(trimethylsilyl)prop-2-yn-1-one] |  |  |  | 0.18 µM | > 1 µM | > 1 µM |
| CCCC[C@H]1Cc2cc(OC)ccc2[C@@H](C23CC(F)(C2)C3)N1C(=O)C#C[Si](C)(C)C [Compound A-10, 1-((1R,3S)-3-butyl-1-(3-fluorobicyclo[1.1.1]pentan-1-yl)-6-methoxy-3,4-dihydroisoquinolin-2(1H)-yl)-3-(trimethylsilyl)prop-2-yn-1-one] |  |  |  | 0.075 µM | > 1 µM | > 1 µM |
| CCCC[C@H]1Cc2cc(OC)ccc2[C@H](c2ccc(NC3CC(F)(F)C3)cc2)N1C(=O)C#C[Si](C)(C)C [Compound A-11, 1-((1S,3S)-3-butyl-1-(4-((3,3-difluorocyclobutyl)amino)phenyl)-6-methoxy-3,4-dihydroisoquinolin-2(1H)-yl)-3-(trimethylsilyl)prop-2-yn-1-one] |  |  |  | 0.109 µM | > 1 µM | > 1 µM |
| CCCC[C@H]1Cc2cc(OC)ccc2[C@H](c2ccc(N3CCC(F)(F)C3)cc2)N1C(=O)C#C[Si](C)(C)C [Compound A-12, 1-((1S,3S)-3-butyl-1-(4-(3,3-difluoropyrrolidin-1-yl)phenyl)-6-methoxy-3,4-dihydroisoquinolin-2(1H)-yl)-3-(trimethylsilyl)prop-2-yn-1-one] |  |  |  | 0.051 µM | > 1 µM | > 1 µM |
| CCCC[C@H]1Cc2cc(OC(F)(F)F)ccc2[C@H](c2ccc(NC34CC5CC(CC(C5)C3)C4)cc2)N1C(=O)C#C[Si](C)(C)C [Compound A-26, 1-((1S,3S)-1-(4-(((3R,5R,7R)-adamantan-1-yl)amino)phenyl)-3-butyl-6-(trifluoromethoxy)-3,4-dihydroisoquinolin-2(1H)-yl)-3-(trimethylsilyl)prop-2-yn-1-one] |  |  |  | 0.043 µM | 4.19 µM | 3.05 µM |
| CCCC[C@H]1Cc2cc(C(F)(F)F)ccc2[C@H](c2ccc(NC34CC5CC(CC(C5)C3)C4)cc2)N1C(=O)C#C[Si](C)(C)C [Compound A-28] |  |  |  | 0.015 µM | 3.58 µM | 2.94 µM |
| CCCC[C@H]1Cc2cc(OC)ccc2[C@H](c2ccc(NC34CC5CC(CC(C5)C3)C4)cc2)N1C(=O)C#C[Si](C)(C)CCCOC(C)=O [Compound A-41] |  |  |  | 0.0125 µM | 1.86 µM | 0.563 µM |
| COc1ccc2c(c1)C[C@H](CC(C)C)N(C(=O)C#C[Si](C)(C)C)[C@H]2c1ccc(NC23CC4CC(CC(C4)C2)C3)cc1 [Compound A-43] |  |  |  | 0.0725 µM | 2.13 µM | 1.83 µM |
| CCCC[C@H]1Cc2cc(OCCO)ccc2[C@H](c2ccc(NC34CC5CC(CC(C5)C3)C4)cc2)N1C(=O)C#C[Si](C)(C)C [Compound A-44] |  |  |  | 0.0053 µM | 2.82 µM | 2.24 µM |
| CCCC[C@H]1Cc2cc(OC)ccc2[C@H](c2ccc(NC34CC5CC(C3)CC(OC(=O)[C@@H](N)C(C)C)(C5)C4)cc2)N1C(=O)C#C[Si](C)(C)C [Compound A-45] |  |  |  | 0.0177 µM | 2.04 µM | 1.7 µM |
| CCCC[C@H]1Cc2cc(OC)ccc2[C@H](c2ccc(NC34CC5CC(CC(O)(C5)C3)C4)cc2)N1C(=O)C#C[Si](C)(C)C [Compound A-47] |  |  |  | 0.049 µM | 2.33 µM | 1.63 µM |

Second part, led by results:

| IC50 [1, 6] | IC50 [2, 7] | IC50 (A431 cells; [8]) | Compound | IC50 [1, 3] | IC50 [2, 4] | IC50 (A431 cells; [5]) |
| --- | --- | --- | --- | --- | --- | --- |
| 0.055 µM | 2.01 µM | 1.49 µM | C#CC(=O)N1[C@@H](CCCC)Cc2cc(OC)ccc2[C@@H]1c1ccc(NC23CC4CC(CC(O)(C4)C2)C3)cc1 [Compound B-13] |  |  |  |
| 0.046 µM | ≥ 10 µM | ≥ 10 µM | C#CC(=O)N1[C@@H](CCCC)Cc2cc(CCC(=O)O)ccc2[C@@H]1c1ccc(NC23CC4CC(CC(C4)C2)C3)cc1 [Compound B-55] |  |  |  |
| 0.012 µM | 1.27 µM | 0.117 µM | C#CC(=O)N1[C@@H](CCCC)Cc2cc(CCCO)ccc2[C@@H]1c1ccc(NC23CC4CC(CC(C4)C2)C3)cc1 [Compound B-56] |  |  |  |
| 0.005 µM | 2.81 µM | 2.88 µM | C#CC(=O)N1[C@@H](CCCC)Cc2cc(OCCOC(=O)CN)ccc2[C@@H]1c1ccc(NC23CC4CC(CC(C4)C2)C3)cc1 [Compound B-57] |  |  |  |
| 0.011 µM | 2.36 µM | 0.856 µM | C#CC(=O)N1[C@@H](CCCC)Cc2cc(NC(=O)C3CCCN3)ccc2[C@@H]1c1ccc(NC23CC4CC(CC(C4)C2)C3)cc1 (stereo partly drawn) [Compound B-58] |  |  |  |
| 0.052 µM | 5.84 µM | 2.37 µM | C#CC(=O)N1[C@@H](CCCC)Cc2cc(OC)ccc2[C@@H]1c1ccc(NC2CCC2)c(Cl)c1 [Compound B-59] |  |  |  |
| 0.005 µM | 2.18 µM | 2.12 µM | C#CC(=O)N1[C@@H](CCCC)Cc2cc(OCCO)ccc2[C@@H]1c1ccc(NC23CC4CC(CC(C4)C2)C3)cc1 [Compound B-60] |  |  |  |
| 0.012 µM | 1.28 µM | 3.54 µM | C#CC(=O)N1[C@@H](CCCC)Cc2cc(C(N)=O)ccc2[C@@H]1c1ccc(NC23CC4CC(CC(C4)C2)C3)cc1 [Compound B-61] |  |  |  |
| 0.005 µM | 7.15 µM | 2.43 µM | C#CC(=O)N1[C@@H](CCCC)Cc2cc(CO)ccc2[C@@H]1c1ccc(NC23CC4CC(CC(C4)C2)C3)cc1 [Compound B-62] |  |  |  |
| 0.009 µM | 0.939 µM | 0.727 µM | C#CC(=O)N1[C@@H](CCCC)Cc2cc(C(F)F)ccc2[C@@H]1c1ccc(NC23CC4CC(CC(C4)C2)C3)cc1 [Compound B-63] |  |  |  |
| ≥ 10 µM | ≥ 10 µM | ≥ 10 µM | C#CC(=O)N1[C@@H](CCCC)Cc2cc(OCc3cn(CCOCCOCCOCCNC(=O)CCCC[C@@H]4SC[C@@H]5NC(=O)N[C@@H]54)nn3)ccc2[C@@H]1c1ccc(NC23CC4CC(CC(C4)C2)C3)cc1 [Compound B-65] |  |  |  |
| 0.055 µM | 2.62 µM | 3.15 µM | C#CC(=O)N1[C@@H](CCCC)Cc2cc(OC)ccc2[C@@H]1c1ccc(NC23CC4CC(CC(C4)C2)C3)c(Cl)c1 [Compound B-66] |  |  |  |
| 0.005 µM | 1.19 µM | 1.13 µM | C#CC(=O)N1[C@@H](CCCC)Cc2cc(OC)ncc2[C@@H]1c1ccc(NC23CC4CC(CC(C4)C2)C3)cc1 [Compound B-67] |  |  |  |
| 0.042 µM | 2.61 µM | 2.35 µM | C#CC(=O)N1[C@@H](CCCC)Cc2cc(OC)ncc2[C@H]1c1ccc(NC23CC4CC(CC(C4)C2)C3)cc1 [Compound B-68] |  |  |  |
| 0.015 µM | 2.47 µM | 1.79 µM | C#CC(=O)N1[C@@H](CCCC)Cc2c(OC)cccc2[C@@H]1c1ccc(NC23CC4CC(CC(C4)C2)C3)cc1 [Compound B-69] |  |  |  |
| 0.012 µM | 1.59 µM | 2.08 µM | C#CC(=O)N1[C@@H](CCCC)Cc2cc(OCCOC)ccc2[C@@H]1c1ccc(NC23CC4CC(CC(C4)C2)C3)cc1 [Compound B-70] |  |  |  |
| 0.066 µM | 1.71 µM | 1.18 µM | C#CC(=O)N1[C@@H](CC(C)C)Cc2cc(OC)ccc2[C@@H]1c1ccc(NC23CC4CC(CC(C4)C2)C3)cc1 [Compound B-71] |  |  |  |
| 0.036 µM | 1.6 µM | 1.7 µM | C#CC(=O)N1[C@@H](CCC(C)C)Cc2cc(OC)ccc2[C@@H]1c1ccc(NC23CC4CC(CC(C4)C2)C3)cc1 [Compound B-72] |  |  |  |
